Data: patent publication US7163935B2, “Scorpionate-like pendant macrocyclic ligands, complexes and compositions thereof, and methods of using same” (The United States of America as represented by the …, priority 2002, dated 2007)

Test: Complexation (formation) kinetics with Y(III), competing reaction with Arsenazo III, absorbance at 652 nm
Assay type: physicochemical
Settings: pH 4, room temperature
Method: Formation kinetics of Y(III) complexes of 1, 2, and DOTA (Macrocyclics) was measured by monitoring the absorption at 652 nm. To 2 mL of 1.6 mM YCl3 (from atomic absorption standard solution, Aldrich) and 5 mM Arsenazo III (Sigma) in 0.15 M NH4OAc (pH 4.0, metal-free), 20 μL of 10 mM ligand solution were added into a cell. After mixing (<5 sec), absorption of the solution at 652 nm (absorption wavelength of Y(III)-Arsenazo III) (Kline et al., Bioconjugate Chem., 1991, 2,26–31) was immediately followed over time at room temperature using an HP 8452A Diode Array Spectrophotometer, which was pre-blanked with a 5 mM Arsernazo III solution. Without any ligand added, the absorption was 0.089 for 1.6 mM YCl3 in 5 mM Arsernazo III solution at 652 nm.
The complexation kinetics of novel chelates 1, 2, and DOTA with Y(III) was qualitatively investigated using a competing reaction with Arsenazo III according to a modification of a previously reported procedure (Kodama et al., Inorg. Chem., 1991, 30, 1270–1273). The absorbance (A652) for the Y(III)-Arsenazo III complex was measured in the absence and in the presence of the chelates (1, 2, and DOTA) over 1 h. The results are shown in FIG. 3, which is a line graph of absorbance at 652 nm vs. reaction time (s), in which curve “a” represents Y-2, curve “b” represents Y-DOTA, and curve “c” represents Y-1. […] Complexation of Y(III) by 2 is assumed to occur to some degree, but the formed complex might undergo decomplexation due to an absence of complex stability, ultimately leading to an unfavorable equilibrium situation.

[1] = Arsenazo III competition, A652 over 1 h

Row | Compound | complex formation with Y(III) (rate) [1] | rate of complex formation with Y(III) compared to DOTA (time scan measurements) | degree of complexation of Y(III) [1]
1 | Cl.Cl.Cl.Cl.O=C(O)CN1CCN(CCN(CC(=O)O)CC(=O)O)CCN(CC(=O)O)CC1 [ligand 1, {[2-(4,7-bis-carboxymethyl)-[1,4,7]triazacyclononan-1-yl-ethyl]-carbonylmethyl-amino]-acetic acid tetrahydrochloride] | quite rapid and is essentially complete very shortly after the starting point of measurement | much greater rate than DOTA | 
2 | Cl.Cl.Cl.Cl.O=C(O)CN1CCN(CCCN(CC(=O)O)CC(=O)O)CCN(CC(=O)O)CC1 [ligand 2, {[3-(4,7-bis-carboxymethyl)-[1,4,7]triazacyclononan-1-yl-propyl]-carbonyl-methylamino]-acetic acid tetrahydrochloride] | very slow |  | slight and remained unchanged over the period of measurement
3 | O=C(O)CN1CCN(CC(=O)O)CCN(CC(=O)O)CCN(CC(=O)O)CC1 [DOTA, 1,4,7,10-tetraazacyclododecane-N,N′,N″,N′″-tetraacetic acid, reference compound] | sluggish |  | 
